{"source": "patent US7172772B2", "about": "“Herbal composition for gastrointestinal disorders” (Council of Scientific & Industrial Research, priority 2003, dated 2007)", "key": {"[1]": {"test_system": "castor oil induced diarrhea in rats", "assay": "Castor oil induced diarrhea / defecation, total faecal matter over 4 h (Table 1)", "type": "in vivo", "details": "5.0 mg kg^−1 p.o.", "procedure": "Groups of six mice each were placed individually in separate cages with filter papers at the bottom. Different doses of the extracts were administered orally to different groups. The non-specific antidiarrhoeal reference drug diphenoxylate HCl (5.0 mg kg^−1, p.o.) and 1% CMC ([…], p.o.) were administered to two groups and later served as controls (Melo et al, J. Pharm. Pharmacol. 40 (1988), […]). The total number of the faecal matter in each group was assessed every hour for the next 4 h. Percent reduction in the total number of faeces in the treated groups was obtained by comparison with control animals.\nThe method of Awouters et al. (J. Pharm. Pharmacol, 30, 1978, 41–45) as modified by Nwodo and Alumanah (J. Ethnopharmacol, 31, 1991, 395–398) was used. Briefly, rats fasted for 24 h were randomly allocated to five groups of six animals each. One group received 1% CMC (10 mL kg^−1, p.o.), other groups received orally the different dosage of drug extract. Another group given diphenoxylate HCl (5.0 mg kg^−1, p.o.) as suspension. After 60 min each animal was given with 2 ml of castor oil by orogastric cannula, and placed in a separate cage and observed for 4 h defecation. Transparent plastic dishes were placed beneath each cage and the characteristic diarrhoeal droppings were noted. The total number of the faecal matter in each group was assessed every hour for the next 4 h. […]"}, "[2]": {"test_system": "human carcinoma cells of the naso-pharynx", "details": "cell culture; cited from earlier work"}, "[3]": {"test_system": "castor oil-stimulated gastrointestinal transit in rats", "assay": "Small intestinal transit, charcoal meal (Table 3)", "type": "in vivo", "details": "0.1 mg kg^−1 IP", "procedure": "Animals were divided into four groups of six rats each and each animal was given orally 1 ml of charcoal meal (5% activated charcoal suspended in 1% CMC) 60 min after an oral dose of drugs or vehicle. Group I was administered with 1% CMC (10 ml kg^−1) and animals in the other groups received various formulations. Another group received atropine sulfate (0.1 mg kg^−1, IP) as standard drug. After 30 min animals were killed by cervical dislocation and the intestine was removed without stretching and placed lengthwise on moist filter paper. The length of the intestine (pyloric sphincter to caecum) and the distance travelled by the charcoal as a percentage of that length were evaluated for each animal, and group means were compared and expressed as percentage inhibition (Lutterodt, J. Ethnopharmacol. 25, 1989, 235–247). […] Therefore the dose dependent effect of the formulation was similar to the synthetic drug atropine. But long use of atropine completely blocks the secretions it is an adverse effect."}, "[4]": {"test_system": "indomethacin induced acute gastric ulcers in rats", "assay": "Indomethacin induced acute gastric ulcers (Table 4)", "type": "in vivo", "details": "50 mg/kg", "procedure": "To assess the efficacy of different formulations against the indomethacin induced gastric ulcer different doses (25–100 mg kg^−1, p.o.) of formulations were administered to groups of 10 mice for each dose, while one group of the same number of mice served as control and the\nThe results of Table 4 represents that there is a significant and dose dependent anti ulcer activity and percentage ratio ranges of protection from 27.03 to 75.38."}, "[5]": {"test_system": "cysteamine induced duodenal ulcers in rats", "assay": "Cysteamine induced duodenal ulcers (Table 5)", "type": "in vivo", "details": "50 mg/kg", "from_the_text": "The efficacy is compared with the known standard synthetic drug Ranitidine for treatment of. […] Where as the formulation F5 contains […]. indica, Cinamommum sp. and Buchanania lanzan."}}, "note": "Several values for one entry are separate records, joined by “and”; a condition that tells them apart may be missing. Equal entries are not always repeated. Structures can show the parent of a compound that is named as a salt. Marks after values point to notes of the source that are not given here."}
{"smiles": "CCOC(=O)C1(c2ccccc2)CCN(CCC(C#N)(c2ccccc2)c2ccccc2)CC1", "note": "[Diphenoxylate HCl, diphenoxylate HCl]", "values": [{"measurement": "Total no of faecal matter", "setting": "[1]; counted over 4 h, six rats per group", "value": 16}, {"measurement": "% Reduction (Inhibition)", "setting": "[1]; vs control 1% CMC", "value": 75.38, "unit": "%"}]}
{"smiles": "COc1cc2c3c(O)c1OCc1ccc(cc1)C[C@@H]1c4c(cc(OC)c(OC)c4Oc4ccc(cc4)CC3=NCC2)CCN1C", "note": "[Cissampareine]", "values": [{"measurement": "inhibitory activity against human carcinoma cells of the naso-pharynx", "setting": "[2]", "value": "significant and reproducible inhibitory activity"}]}
{"smiles": "CN1[C@@H]2CC[C@H]1CC(OC(=O)C(CO)c1ccccc1)C2.CN1[C@@H]2CC[C@H]1CC(OC(=O)C(CO)c1ccccc1)C2.O=S(=O)(O)O", "note": "(some centres unmarked) [Atropine sulphate, atropine sulfate]", "values": [{"measurement": "Mean distance travelled by charcoal", "setting": "[3]", "value": "26.5 ± 2.6^b cm"}, {"measurement": "Reduction (%)", "setting": "[3]", "value": 68.33, "unit": "%"}]}
{"smiles": "CNC(=C[N+](=O)[O-])NCCSCc1ccc(CN(C)C)o1", "note": "[Ranitidine]", "values": [{"measurement": "% Curative ratio", "setting": "[4]", "value": 82.20, "unit": "%"}, {"measurement": "Ulcer index", "setting": "[4]", "value": "0.81 ± 0.01^b"}, {"measurement": "% Protection", "setting": "[5]", "value": "77% and 77.9%"}, {"measurement": "Ulcer incidence %", "setting": "[5]", "value": 20, "unit": "%"}, {"measurement": "Ulcer incidence No", "setting": "[5]", "value": "2/10"}, {"measurement": "Ulcer score Total lesion area", "setting": "[5]", "value": "1.06 ± 0.17^c mm^2"}]}
